Reference: ChEMBL document CHEMBL4507268 (2021)

Tests used:
[1] = biological target: Cytoplasmic tyrosine-protein kinase BMX (Homo sapiens) (UniProt P51813); settings: Compound concentration 1000.0 nM
[2] = biological target: Eukaryotic translation initiation factor 2-alpha kinase 1 (Homo sapiens) (UniProt Q9BQI3); settings: Compound concentration 1000.0 nM
[3] = biological target: T1, Ephrin type-B receptor 2 (Homo sapiens) (UniProt P29323); settings: Compound concentration 1000.0 nM
T1 sequence (whole entry): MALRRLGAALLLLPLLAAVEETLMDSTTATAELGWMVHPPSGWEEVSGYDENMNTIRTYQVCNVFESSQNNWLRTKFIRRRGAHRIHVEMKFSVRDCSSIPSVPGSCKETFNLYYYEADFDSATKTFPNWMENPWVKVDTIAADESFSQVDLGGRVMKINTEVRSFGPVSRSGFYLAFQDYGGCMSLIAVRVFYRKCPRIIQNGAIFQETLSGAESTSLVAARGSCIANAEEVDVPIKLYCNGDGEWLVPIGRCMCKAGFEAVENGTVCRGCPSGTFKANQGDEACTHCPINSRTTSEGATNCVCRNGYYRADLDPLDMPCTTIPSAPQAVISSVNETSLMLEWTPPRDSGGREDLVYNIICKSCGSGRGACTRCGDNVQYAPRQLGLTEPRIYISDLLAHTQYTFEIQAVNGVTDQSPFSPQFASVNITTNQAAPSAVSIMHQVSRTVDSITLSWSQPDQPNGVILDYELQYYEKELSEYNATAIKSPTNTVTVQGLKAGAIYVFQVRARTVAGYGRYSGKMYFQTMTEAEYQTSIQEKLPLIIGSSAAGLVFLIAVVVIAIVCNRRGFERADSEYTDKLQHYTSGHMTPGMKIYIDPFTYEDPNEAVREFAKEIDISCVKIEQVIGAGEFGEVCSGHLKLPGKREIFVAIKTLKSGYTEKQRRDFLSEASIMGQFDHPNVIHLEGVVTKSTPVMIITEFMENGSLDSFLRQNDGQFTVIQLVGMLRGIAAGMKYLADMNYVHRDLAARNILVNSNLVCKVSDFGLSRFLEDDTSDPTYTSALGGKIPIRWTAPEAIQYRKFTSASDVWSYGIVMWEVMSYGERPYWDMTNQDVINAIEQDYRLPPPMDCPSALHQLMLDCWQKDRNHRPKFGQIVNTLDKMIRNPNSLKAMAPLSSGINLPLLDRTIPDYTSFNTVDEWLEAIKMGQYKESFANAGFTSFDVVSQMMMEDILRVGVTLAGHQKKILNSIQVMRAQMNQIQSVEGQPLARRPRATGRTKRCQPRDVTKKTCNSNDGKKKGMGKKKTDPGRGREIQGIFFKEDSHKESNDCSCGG

[4] = biological target: T2, Mitogen-activated protein kinase kinase kinase kinase 3 (Homo sapiens) (UniProt Q8IVH8); settings: Compound concentration 1000.0 nM
T2 sequence (whole entry): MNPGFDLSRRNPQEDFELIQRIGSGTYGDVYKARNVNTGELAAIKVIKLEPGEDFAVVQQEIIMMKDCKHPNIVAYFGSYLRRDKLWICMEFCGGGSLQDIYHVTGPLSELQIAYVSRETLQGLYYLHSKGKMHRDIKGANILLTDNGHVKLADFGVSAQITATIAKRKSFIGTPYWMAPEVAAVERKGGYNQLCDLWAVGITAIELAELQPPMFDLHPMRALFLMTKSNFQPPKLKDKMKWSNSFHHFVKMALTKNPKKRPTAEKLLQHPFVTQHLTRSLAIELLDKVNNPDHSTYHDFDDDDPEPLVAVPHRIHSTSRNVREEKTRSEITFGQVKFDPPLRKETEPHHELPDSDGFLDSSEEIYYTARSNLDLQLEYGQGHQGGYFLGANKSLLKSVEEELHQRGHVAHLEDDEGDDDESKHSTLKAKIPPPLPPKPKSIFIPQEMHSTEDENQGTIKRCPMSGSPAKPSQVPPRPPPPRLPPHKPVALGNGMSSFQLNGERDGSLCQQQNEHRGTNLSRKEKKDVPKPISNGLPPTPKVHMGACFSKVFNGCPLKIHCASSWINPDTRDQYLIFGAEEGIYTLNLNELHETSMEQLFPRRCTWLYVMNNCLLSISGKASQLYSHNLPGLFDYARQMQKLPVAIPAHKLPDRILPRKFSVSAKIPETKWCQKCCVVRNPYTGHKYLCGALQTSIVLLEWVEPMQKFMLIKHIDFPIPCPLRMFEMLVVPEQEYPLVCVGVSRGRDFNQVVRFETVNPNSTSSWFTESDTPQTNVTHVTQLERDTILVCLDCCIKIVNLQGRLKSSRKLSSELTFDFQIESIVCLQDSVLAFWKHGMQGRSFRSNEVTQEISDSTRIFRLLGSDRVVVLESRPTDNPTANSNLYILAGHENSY

[5] = biological target: Calcium-dependent protein kinase 1 (Plasmodium falciparum) (UniProt P62344); settings: Compound concentration 1000.0 nM
[6] = biological target: T3, Protein kinase C iota type (Homo sapiens) (UniProt P41743); settings: Compound concentration 1000.0 nM
T3 sequence (whole entry): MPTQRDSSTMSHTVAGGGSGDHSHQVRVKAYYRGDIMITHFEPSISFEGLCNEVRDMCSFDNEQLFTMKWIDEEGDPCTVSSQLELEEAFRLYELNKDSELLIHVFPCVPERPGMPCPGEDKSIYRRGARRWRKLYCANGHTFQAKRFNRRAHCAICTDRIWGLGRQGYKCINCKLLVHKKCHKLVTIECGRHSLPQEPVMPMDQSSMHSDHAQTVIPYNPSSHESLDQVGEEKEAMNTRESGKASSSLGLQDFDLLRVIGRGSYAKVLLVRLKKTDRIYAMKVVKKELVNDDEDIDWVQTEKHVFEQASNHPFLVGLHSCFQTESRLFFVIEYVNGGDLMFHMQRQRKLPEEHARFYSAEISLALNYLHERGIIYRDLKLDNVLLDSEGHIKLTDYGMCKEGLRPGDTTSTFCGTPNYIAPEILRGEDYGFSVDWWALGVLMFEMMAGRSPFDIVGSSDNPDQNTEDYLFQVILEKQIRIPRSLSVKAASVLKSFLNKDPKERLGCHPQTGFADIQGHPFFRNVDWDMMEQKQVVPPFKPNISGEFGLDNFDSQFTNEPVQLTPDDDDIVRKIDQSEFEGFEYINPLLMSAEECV

[7] = biological target: Dual serine/threonine and tyrosine protein kinase (Homo sapiens) (UniProt Q6XUX3); settings: Compound concentration 1000.0 nM
[8] = biological target: TRAF2 and NCK-interacting protein kinase (Homo sapiens) (UniProt Q9UKE5); settings: Compound concentration 1000.0 nM
[9] = biological target: GABA-A receptor; anion channel (Rattus norvegicus) (UniProt O09028+P15431+P18506+P18508+P19969+P20236+P23574+P23576+P28471+P28473+P30191+P62813+P63079+P63138+Q91ZM7+Q9ES14); settings: Compound concentration 10.0 uM

Calcium-dependent protein kinase 1 (Plasmodium falciparum), sequence (P62344 2-524 limits assumed): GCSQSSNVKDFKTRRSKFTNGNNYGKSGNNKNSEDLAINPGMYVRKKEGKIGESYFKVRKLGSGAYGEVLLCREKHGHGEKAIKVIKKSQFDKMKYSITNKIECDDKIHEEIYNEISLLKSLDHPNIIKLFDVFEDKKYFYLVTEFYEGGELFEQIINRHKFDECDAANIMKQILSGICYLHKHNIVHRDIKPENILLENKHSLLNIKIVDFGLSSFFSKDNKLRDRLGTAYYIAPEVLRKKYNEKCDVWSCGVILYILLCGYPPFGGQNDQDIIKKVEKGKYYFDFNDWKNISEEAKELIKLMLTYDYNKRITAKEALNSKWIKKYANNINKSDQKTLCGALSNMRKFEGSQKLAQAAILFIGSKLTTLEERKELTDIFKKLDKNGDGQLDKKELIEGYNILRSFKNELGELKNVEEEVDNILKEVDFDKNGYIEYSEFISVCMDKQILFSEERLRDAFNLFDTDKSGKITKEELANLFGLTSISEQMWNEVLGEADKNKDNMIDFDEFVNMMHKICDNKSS
TRAF2 and NCK-interacting protein kinase (Homo sapiens), sequence (Q9UKE5 whole entry, looked up): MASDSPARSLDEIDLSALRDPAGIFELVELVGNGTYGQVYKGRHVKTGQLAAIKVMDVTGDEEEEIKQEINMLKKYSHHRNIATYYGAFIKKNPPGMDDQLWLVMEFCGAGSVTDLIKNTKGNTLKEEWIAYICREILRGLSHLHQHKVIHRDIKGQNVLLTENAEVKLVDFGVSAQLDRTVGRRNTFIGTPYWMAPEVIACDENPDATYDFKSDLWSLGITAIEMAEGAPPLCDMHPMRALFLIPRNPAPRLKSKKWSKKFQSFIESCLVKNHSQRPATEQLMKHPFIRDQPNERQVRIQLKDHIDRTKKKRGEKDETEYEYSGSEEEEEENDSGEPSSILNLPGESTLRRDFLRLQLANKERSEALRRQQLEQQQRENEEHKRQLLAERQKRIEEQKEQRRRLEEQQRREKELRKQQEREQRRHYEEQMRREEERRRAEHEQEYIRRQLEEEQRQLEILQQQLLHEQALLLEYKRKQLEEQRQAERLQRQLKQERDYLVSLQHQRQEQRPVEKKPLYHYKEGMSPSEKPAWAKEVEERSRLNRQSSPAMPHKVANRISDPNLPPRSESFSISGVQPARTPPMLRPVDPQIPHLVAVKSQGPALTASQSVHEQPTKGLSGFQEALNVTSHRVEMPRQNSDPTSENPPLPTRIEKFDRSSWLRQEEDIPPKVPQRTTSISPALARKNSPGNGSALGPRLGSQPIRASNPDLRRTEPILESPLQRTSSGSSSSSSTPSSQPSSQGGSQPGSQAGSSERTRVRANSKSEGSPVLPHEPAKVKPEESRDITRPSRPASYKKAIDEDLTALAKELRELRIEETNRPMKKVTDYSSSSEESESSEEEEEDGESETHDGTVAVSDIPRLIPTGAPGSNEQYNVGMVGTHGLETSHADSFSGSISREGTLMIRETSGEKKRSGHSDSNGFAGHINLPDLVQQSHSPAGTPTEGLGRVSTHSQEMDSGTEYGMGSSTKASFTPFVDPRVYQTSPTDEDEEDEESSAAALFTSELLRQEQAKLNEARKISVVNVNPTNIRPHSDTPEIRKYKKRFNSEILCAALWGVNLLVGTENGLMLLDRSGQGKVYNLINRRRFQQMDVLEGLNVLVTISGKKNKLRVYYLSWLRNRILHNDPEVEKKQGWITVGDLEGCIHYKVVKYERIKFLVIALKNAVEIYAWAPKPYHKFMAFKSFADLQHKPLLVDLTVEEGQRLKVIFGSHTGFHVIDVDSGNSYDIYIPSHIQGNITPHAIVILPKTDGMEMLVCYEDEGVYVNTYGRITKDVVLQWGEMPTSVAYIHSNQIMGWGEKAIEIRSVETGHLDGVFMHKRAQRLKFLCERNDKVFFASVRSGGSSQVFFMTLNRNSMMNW
Dual serine/threonine and tyrosine protein kinase (Homo sapiens), sequence (Q6XUX3 whole entry): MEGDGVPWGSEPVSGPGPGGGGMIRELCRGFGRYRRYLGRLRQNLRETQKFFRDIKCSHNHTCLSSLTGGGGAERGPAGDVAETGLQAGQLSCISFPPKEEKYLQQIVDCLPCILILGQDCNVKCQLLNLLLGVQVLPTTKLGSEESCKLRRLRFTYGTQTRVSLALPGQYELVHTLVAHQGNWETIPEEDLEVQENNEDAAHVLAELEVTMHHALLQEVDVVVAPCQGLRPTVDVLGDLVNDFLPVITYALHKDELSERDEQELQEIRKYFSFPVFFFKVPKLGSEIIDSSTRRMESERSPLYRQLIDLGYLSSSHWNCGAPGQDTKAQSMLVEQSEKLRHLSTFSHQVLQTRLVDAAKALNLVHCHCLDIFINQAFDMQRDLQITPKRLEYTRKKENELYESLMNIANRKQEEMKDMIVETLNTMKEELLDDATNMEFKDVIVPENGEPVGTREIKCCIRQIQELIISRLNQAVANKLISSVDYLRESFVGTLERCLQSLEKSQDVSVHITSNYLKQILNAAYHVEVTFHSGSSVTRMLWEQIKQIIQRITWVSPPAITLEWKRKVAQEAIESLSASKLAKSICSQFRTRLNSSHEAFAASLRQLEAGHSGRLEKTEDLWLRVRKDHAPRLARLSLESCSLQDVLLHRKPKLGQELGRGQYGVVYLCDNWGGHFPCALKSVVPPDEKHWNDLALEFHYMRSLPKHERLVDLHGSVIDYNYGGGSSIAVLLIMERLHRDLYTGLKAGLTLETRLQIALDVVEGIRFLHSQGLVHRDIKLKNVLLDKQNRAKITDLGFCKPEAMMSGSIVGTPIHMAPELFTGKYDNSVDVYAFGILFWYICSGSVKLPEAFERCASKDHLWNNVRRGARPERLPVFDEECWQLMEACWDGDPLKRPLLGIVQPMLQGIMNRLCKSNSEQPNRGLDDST
Eukaryotic translation initiation factor 2-alpha kinase 1 (Homo sapiens), sequence (Q9BQI3 whole entry): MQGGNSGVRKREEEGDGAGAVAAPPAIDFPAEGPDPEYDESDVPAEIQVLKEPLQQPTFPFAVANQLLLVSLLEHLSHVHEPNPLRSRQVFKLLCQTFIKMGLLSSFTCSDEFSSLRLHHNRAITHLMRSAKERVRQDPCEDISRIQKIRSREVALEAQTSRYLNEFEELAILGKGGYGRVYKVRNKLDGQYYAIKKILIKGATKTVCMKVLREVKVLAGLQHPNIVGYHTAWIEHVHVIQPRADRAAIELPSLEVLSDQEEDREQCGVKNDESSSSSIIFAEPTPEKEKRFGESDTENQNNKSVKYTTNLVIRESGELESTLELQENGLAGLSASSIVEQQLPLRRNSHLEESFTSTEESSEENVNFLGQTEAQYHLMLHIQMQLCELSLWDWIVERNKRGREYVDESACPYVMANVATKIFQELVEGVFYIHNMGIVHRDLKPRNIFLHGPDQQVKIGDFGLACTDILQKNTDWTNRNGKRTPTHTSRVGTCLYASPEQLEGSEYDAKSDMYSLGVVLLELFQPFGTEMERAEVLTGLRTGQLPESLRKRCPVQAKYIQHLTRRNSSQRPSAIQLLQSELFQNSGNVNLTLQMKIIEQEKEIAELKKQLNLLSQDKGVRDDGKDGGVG
Cytoplasmic tyrosine-protein kinase BMX (Homo sapiens), sequence (P51813 whole entry): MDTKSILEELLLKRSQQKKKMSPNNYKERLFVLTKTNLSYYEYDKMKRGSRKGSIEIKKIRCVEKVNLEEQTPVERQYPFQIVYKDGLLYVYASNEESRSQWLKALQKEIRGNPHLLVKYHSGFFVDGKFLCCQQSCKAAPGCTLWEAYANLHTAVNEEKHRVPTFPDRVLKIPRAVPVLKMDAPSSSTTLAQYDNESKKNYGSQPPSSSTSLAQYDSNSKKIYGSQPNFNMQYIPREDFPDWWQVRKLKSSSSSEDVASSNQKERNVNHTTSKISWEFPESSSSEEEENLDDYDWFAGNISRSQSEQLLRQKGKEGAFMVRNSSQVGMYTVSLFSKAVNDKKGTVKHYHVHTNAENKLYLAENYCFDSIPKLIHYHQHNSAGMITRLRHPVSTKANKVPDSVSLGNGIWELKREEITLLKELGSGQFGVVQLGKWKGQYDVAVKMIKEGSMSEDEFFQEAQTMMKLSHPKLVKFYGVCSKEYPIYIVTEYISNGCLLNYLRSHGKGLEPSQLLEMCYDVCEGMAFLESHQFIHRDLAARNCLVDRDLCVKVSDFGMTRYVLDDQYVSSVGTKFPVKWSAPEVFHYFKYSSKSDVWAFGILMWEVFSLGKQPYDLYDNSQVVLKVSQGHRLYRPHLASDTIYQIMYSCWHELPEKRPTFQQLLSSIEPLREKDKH

Cc1nc(C2CCN(C(=O)c3ccc(OC(F)(F)F)cc3N)CC2)c2ncc(N3CCN(C)CC3)cc2n1 [BAY-693]
inactive: residual activity [1] 100% | residual activity [2] 85% | residual activity [3] 100% | residual activity [4] 100% | residual activity [5] 100% | residual activity [6] 81% | residual activity [7] 95% | residual activity [8] 100% | inhibition [9] 15%

CN1CCN(c2cnc3c(C4CCN(C(=O)c5ccc(OC(F)(F)F)cc5N)CC4)ncnc3c2)CC1 [BAY-885]
inactive: residual activity [1] 100% | residual activity [2] 100% | residual activity [3] 78% | residual activity [4] 100% | residual activity [5] 100% | residual activity [6] 77% | residual activity [7] 100% | residual activity [8] 100% | inhibition [9] 21.8%
